Measurements as given in patent EP3057951B1, “METHYLENE LINKED QUINOLINYL MODULATORS OF ROR-GAMMA-T” (Janssen Pharmaceutica NV, priority 2013, dated 2015).

Key:
[1] = target: T1, wild type human RORγt ligand binding domain (RORyt LBD) (Homo sapiens, UniProt P51449); experiment: RORγt ThermoFluor assay (thermal shift, binding affinity KD)
T1 construct: His-tag (N); TurboTEV protease cleavage site (ENLYFQG) (N); made in house; host or cells: E. coli (pHIS1, modified pET vector)
T1 sequence (P51449 258-518): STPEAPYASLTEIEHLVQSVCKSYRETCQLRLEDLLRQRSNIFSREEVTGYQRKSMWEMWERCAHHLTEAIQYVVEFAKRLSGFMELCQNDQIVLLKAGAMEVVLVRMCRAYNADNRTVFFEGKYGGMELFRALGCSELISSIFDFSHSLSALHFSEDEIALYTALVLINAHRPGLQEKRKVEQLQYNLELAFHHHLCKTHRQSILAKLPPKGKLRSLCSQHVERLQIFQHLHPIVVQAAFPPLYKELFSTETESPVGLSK

[2] = target: T2, wild type human RORγt LBD (Homo sapiens, UniProt P51449); experiment: RORγt (LBD) Reporter Assay (GAL4-luciferase, HEK293T cells); type: cell-based; conditions: for inhibition at 6 µM: HEK-293T, read-out: RORγt (LBD) Reporter Assay, % inhibition @ 6 µM, 6 µM compound concentration; for RORγt (LBD) Reporter Assay, % inhibition @ 6 µM: 6 µM compound concentration
T2 construct: expressed in transfected cells; host or cells: HEK293T
T2 sequence (P51449 258-518): T1 sequence (P51449 258-518)

[3] = HEK293T cells, value after the comma with ∼, > or < could not be included in the average

Kd [1] [nM]	IC50 ([2]; HEK293T cells) [nM]	inhibition at 6 µM ([2]; HEK293T cells) [%]	RORγt (LBD) Reporter Assay, % inhibition @ 6 µM ([2]; HEK293T cells, 6 µM) [%]	RORγt (LBD) Reporter Assay, % inhibition @ 6 µM ([2]; 6 µM) [%]	IC50 [2, 3] [nM]	RORγt (LBD) Reporter Assay, % inhibition @ 6 µM [2] [%]	Structure (SMILES)
140	170	107					COc1nc2ccc(C(O)(c3ccc(F)cc3)c3cccnc3)cc2c(Cl)c1Cc1ccc(-n2cccn2)cc1 (single isomer, unassigned) [Example 158b, (3-(4-(1H-Pyrazol-1-yl)benzyl)-4-chloro-2-methoxyquinolin-6-yl)(4-fluorophenyl)(pyridin-3-yl)methanol]
5.5	52		101				COc1nc2ccc(C(O)(c3ccc(C)nc3C)c3cnnn3C)cc2c(Cl)c1Cc1ccc(S(C)(=O)=O)cc1 (single isomer, unassigned) [Example 117c, (4-Chloro-2-methoxy-3-(4-(methylsulfonyl)benzyl)quinolin-6-yl)(2,6-dimethylpyridin-3-yl)(1-methyl-1H-1,2,3-triazol-5-yl)methanol]
600	~2000		92				Cn1cncc1C(O)(c1ccc(C(F)(F)F)nc1)c1ccc2nc(N3CCOCC3)c(Cc3ccc(-n4cccn4)cc3)c(Cl)c2c1 (single isomer, unassigned) [Example 146c, {4-Chloro-2-morpholin-4-yl-3-[4-(1H-pyrazol-1-yl)benzyl]quinolin-6-yl}(1-methyl-1H-imidazol-5-yl)[6-(trifluoromethyl)pyridin-3-yl]methanol]
0.29				101	9		COc1nc2ccc(C(O)(c3ccc(C)nc3C)c3cnnn3C)cc2c(Cl)c1Cc1ccc(-n2cccn2)cc1 (single isomer, unassigned) [Example 17c, (3-(4-(1H-Pyrazol-1-yl)benzyl)-4-chloro-2-methoxyquinolin-6-yl)(2,6-dimethylpyridin-3-yl)(1-methyl-1H-1,2,3-triazol-5-yl)methanol]
0.03				97	46		CCc1nc2ccc(C(O)(c3ccc(C)nc3C)c3cnnn3C)cc2c(Cl)c1Cc1ccc(C(F)(F)F)cc1 (single isomer, unassigned) [Example 23c, (4-Chloro-2-ethyl-3-(4-(trifluoromethyl)benzyl)quinolin-6-yl)(2,6-dimethylpyridin-3-yl)(1-methyl-1H-1,2,3-triazol-5-yl)methanol]
0.14	20	98					Cc1ccc(C(O)(c2ccc3nc(Cl)c(Cc4ccc(C(F)(F)F)cc4)c(Cl)c3c2)c2cnnn2C)c(C)n1 (stereo not drawn) [Example 139]
0.26					< 2	97	COc1nc2ccc(C(O)(c3cncn3C)c3cnnn3C)cc2c(Cl)c1Cc1ccc(C(F)(F)F)cc1 (single isomer, unassigned) [Example 89c, (4-Chloro-2-methoxy-3-(4-(trifluoromethyl)benzyl)quinolin-6-yl)(1-methyl-1H-1,2,3-triazol-5-yl)(1-methyl-1H-imidazol-5-yl)methanol]
45				103	230		CC(=O)N1CCC(C(O)(c2ccc(C(F)(F)F)nc2)c2cc(C)c3nc(C#N)c(Cc4ccc(-n5cccn5)cc4)c(C#N)c3c2)CC1 (single isomer, unassigned) [Example 79c, 3-(4-(1H-Pyrazol-1-yl)benzyl)-6-((1-acetylpiperidin-4-yl)(hydroxy)(6(trifluoromethyl)pyridin-3-yl)methyl)-8-methylquinoline-2,4-dicarbonitrile]
12000	1200		82				COC1CN(c2nc3ccc(C(O)(c4ccc(C(F)(F)F)nc4)c4cncn4C)cc3c(Cl)c2Cc2ccc(-n3cccn3)cc2)C1 (single isomer, unassigned) [Example 133c, {4-Chloro-2-(3-methoxyazetidin-1-yl)-3-[4-(1H-pyrazol-1-yl)benzyl]quinolin-6-yl}(1-methyl-1H-imidazol-5-yl)[6-(trifluoromethyl)pyridin-3-yl]methanol]
